Source: ChEMBL document CHEMBL5291721, “A preclinical secondary pharmacology resource illuminates target-adverse drug reaction associations of marketed drugs” (Nat Commun, 2023)

How the values were obtained:
[1] = biological target: Beta-3 adrenergic receptor (Homo sapiens, UniProt P13945)
[2] = biological target: Voltage-dependent N-type calcium channel subunit alpha-1B (Rattus norvegicus, UniProt Q02294); type: functional
[3] = biological target: T1, Neuropeptide Y receptor type 2 (Homo sapiens, UniProt P49146)
T1 sequence (P49146 whole entry): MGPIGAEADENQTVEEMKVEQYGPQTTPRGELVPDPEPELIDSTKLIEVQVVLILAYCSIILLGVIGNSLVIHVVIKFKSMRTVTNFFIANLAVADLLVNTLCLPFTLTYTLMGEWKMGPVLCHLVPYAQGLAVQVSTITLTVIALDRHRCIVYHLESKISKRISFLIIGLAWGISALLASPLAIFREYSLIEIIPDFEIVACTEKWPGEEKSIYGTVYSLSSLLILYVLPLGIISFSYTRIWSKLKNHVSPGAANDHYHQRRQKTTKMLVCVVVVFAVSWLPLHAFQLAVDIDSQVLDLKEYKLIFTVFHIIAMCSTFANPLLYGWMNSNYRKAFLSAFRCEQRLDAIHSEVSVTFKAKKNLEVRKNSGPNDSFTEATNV

[4] = biological target: T2, Alpha-1A adrenergic receptor (Homo sapiens, UniProt P35348)
T2 sequence (P35348 whole entry): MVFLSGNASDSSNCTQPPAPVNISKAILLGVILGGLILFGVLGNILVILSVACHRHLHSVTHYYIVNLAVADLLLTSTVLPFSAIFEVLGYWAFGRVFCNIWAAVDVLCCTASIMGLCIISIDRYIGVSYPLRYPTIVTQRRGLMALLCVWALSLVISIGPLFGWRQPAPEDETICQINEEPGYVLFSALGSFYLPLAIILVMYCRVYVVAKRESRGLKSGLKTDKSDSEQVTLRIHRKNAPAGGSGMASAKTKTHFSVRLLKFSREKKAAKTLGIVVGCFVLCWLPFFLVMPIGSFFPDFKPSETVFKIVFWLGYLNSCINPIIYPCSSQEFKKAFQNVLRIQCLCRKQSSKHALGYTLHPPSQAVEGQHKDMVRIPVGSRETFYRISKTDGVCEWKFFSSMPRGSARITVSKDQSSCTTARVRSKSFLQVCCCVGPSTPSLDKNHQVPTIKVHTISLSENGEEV

[5] = biological target: T3, Endothelin receptor type B (Homo sapiens, UniProt P24530)
T3 sequence (P24530 whole entry): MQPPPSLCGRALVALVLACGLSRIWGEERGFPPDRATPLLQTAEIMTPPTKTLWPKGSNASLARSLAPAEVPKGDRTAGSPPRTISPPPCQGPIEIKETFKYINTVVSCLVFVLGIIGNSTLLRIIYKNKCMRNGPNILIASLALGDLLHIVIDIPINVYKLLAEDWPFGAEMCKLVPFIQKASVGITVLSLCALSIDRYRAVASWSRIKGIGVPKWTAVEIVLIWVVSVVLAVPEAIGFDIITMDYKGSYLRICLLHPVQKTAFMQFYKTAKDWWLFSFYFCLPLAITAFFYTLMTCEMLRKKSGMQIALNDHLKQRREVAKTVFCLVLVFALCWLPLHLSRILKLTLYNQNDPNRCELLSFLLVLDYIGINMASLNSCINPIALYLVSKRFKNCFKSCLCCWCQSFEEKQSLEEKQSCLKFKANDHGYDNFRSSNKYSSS

[6] = biological target: T4, D(4) dopamine receptor (Homo sapiens, UniProt P21917)
T4 sequence (P21917 whole entry): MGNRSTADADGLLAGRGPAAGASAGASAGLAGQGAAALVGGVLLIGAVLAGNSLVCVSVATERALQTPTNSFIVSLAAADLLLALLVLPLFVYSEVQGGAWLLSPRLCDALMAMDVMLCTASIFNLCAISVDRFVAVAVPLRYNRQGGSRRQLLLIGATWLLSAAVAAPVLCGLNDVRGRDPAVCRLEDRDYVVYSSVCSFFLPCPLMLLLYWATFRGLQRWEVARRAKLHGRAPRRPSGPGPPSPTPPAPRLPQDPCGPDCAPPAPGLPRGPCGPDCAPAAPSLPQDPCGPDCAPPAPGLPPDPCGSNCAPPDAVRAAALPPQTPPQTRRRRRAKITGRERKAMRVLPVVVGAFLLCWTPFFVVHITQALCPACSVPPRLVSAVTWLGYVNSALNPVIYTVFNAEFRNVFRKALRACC

[7] = biological target: Histamine H2 receptor (Homo sapiens, UniProt P25021)
Sequence of Histamine H2 receptor (P25021 whole entry): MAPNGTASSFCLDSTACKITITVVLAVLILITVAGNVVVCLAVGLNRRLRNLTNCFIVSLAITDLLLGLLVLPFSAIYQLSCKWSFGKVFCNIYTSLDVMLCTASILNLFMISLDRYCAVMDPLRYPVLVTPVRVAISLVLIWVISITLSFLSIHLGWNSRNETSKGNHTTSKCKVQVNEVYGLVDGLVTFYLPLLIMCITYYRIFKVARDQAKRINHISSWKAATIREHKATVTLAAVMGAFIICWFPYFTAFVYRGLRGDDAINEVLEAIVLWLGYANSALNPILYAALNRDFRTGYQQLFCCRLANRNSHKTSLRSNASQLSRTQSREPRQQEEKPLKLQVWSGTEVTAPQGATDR

[8] = biological target: T5, Androgen receptor (Rattus norvegicus, UniProt P15207)
T5 sequence (P15207 whole entry): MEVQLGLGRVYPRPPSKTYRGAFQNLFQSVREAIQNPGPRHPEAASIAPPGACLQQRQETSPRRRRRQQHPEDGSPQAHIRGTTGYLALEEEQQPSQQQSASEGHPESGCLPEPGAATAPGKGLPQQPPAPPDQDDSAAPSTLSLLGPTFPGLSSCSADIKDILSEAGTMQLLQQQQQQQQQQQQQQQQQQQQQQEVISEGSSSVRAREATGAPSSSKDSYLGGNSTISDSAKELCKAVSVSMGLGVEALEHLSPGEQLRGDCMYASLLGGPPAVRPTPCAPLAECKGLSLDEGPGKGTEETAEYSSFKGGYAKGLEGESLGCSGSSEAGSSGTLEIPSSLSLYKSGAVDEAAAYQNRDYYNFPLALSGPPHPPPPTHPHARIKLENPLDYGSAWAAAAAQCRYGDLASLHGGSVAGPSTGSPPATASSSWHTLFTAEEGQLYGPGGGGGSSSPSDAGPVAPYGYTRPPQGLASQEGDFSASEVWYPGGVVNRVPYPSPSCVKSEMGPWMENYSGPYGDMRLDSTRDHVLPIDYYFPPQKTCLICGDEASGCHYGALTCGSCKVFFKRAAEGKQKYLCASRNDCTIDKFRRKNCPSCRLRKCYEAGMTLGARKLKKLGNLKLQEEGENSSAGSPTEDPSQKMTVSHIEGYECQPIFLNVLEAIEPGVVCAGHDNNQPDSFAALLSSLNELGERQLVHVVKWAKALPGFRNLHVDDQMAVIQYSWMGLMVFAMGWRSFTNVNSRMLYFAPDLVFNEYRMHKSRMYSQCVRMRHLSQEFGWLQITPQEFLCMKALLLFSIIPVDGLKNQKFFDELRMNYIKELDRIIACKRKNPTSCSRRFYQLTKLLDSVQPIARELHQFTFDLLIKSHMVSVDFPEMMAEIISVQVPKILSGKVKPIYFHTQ

[9] = biological target: T5, Androgen receptor; type: functional
Note: assay procedure not described here.

Sequence of Voltage-dependent N-type calcium channel subunit alpha-1B (Q02294 whole entry): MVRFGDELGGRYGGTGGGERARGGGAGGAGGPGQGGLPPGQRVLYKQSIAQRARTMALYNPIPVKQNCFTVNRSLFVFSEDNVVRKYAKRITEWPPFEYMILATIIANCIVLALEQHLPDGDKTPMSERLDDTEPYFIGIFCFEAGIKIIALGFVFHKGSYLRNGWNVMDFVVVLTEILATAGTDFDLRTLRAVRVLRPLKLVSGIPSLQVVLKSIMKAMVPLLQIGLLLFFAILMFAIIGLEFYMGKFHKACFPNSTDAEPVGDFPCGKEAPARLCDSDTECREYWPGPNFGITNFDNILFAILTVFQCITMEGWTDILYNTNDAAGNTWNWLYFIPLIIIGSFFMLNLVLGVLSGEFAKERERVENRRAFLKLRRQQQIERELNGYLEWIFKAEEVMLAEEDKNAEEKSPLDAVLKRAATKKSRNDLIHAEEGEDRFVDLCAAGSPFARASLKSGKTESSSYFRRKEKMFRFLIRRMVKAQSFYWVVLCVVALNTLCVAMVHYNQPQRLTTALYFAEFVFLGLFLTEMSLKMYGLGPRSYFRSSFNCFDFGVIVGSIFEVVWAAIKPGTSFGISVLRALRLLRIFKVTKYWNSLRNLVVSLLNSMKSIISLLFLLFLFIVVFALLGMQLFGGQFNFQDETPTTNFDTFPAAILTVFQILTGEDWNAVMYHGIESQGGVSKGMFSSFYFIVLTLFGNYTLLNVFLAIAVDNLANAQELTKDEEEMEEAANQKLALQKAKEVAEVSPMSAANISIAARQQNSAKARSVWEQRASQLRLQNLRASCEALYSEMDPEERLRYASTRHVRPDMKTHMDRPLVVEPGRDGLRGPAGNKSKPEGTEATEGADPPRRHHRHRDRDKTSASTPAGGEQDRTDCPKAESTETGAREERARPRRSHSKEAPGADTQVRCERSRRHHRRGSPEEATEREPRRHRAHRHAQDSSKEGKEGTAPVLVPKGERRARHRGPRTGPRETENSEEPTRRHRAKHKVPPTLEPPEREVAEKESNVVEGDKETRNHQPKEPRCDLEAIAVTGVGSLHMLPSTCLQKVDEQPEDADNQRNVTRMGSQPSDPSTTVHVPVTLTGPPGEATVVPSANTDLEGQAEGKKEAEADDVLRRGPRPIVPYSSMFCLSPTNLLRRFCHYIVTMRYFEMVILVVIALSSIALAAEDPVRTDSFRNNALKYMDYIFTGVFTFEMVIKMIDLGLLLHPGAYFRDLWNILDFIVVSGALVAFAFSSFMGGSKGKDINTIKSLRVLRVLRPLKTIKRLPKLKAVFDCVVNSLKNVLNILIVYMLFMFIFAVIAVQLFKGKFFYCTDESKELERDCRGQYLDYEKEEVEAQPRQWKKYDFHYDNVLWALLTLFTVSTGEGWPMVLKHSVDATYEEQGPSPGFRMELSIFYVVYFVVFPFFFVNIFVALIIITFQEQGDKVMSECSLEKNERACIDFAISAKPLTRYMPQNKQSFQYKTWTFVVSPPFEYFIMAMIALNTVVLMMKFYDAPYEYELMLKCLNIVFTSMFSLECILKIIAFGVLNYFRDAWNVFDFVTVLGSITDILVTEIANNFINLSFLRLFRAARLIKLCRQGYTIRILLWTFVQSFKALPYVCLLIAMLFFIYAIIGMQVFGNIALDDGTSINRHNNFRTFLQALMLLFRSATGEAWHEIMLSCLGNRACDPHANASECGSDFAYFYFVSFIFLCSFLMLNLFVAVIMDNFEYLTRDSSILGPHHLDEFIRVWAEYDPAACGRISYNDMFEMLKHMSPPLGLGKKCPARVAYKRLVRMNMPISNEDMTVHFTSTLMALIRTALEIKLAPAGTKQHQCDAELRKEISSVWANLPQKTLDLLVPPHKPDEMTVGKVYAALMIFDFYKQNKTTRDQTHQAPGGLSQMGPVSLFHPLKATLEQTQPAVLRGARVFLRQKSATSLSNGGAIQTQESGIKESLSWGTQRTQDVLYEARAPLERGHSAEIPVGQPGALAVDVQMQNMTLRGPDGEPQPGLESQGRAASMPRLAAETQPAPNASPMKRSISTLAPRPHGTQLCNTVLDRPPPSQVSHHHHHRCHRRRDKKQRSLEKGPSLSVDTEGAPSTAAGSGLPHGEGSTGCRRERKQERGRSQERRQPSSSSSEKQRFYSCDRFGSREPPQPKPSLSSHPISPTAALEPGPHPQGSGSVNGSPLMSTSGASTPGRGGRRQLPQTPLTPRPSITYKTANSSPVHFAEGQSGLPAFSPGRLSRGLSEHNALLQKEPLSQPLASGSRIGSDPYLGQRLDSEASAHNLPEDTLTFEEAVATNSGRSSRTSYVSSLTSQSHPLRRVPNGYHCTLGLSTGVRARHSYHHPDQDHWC
Sequence of Beta-3 adrenergic receptor (P13945 whole entry): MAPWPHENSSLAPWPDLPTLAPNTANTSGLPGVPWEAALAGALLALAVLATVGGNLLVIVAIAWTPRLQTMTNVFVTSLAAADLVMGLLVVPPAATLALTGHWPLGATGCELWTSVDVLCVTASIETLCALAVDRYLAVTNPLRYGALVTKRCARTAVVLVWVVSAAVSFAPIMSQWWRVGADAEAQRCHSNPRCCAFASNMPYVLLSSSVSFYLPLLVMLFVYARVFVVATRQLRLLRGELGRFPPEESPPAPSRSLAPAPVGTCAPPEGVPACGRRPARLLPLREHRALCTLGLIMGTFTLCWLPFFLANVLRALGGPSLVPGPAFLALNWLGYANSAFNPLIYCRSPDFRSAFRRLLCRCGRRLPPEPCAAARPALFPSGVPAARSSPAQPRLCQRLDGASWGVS

Row | Structure (SMILES) | AC50 [1] [µM] | AC50 [2] [µM] | AC50 [3] [µM] | AC50 [5] [µM] | AC50 [7] [µM] | AC50 [9] [µM] | further results
1 | O=C(O)COCCN1CCN(C(c2ccccc2)c2ccc(Cl)cc2)CC1 (stereo not drawn) [CETIRIZINE] | > 30 | > 10 | > 30 | > 30 | – | – | AC50 [4]: > 10 µM; AC50 [6]: > 10 µM
2 | C[C@@H]1C[C@H]2[C@@H]3C[C@H](F)C4=CC(=O)C=C[C@]4(C)[C@@]3(F)[C@@H](O)C[C@]2(C)[C@@]1(OC(=O)c1ccco1)C(=O)SCF [FLUTICASONE FUROATE] | – | > 10 | > 10 | > 10 | > 10 | – | AC50 [4]: > 10 µM; AC50 [6]: > 10 µM
3 | Cc1ccccc1-n1c(CF)nc2ccc(N)cc2c1=O [AFLOQUALONE] | – | – | – | – | – | – | AC50 [8]: > 30 µM
4 | COc1ccc([C@@H]2CC(=O)c3c(O)cc(O)cc3O2)cc1O [HESPERETIN] | – | – | – | – | – | – | AC50 [8]: > 10 µM
5 | CCCN1CC(NS(=O)(=O)N(CC)CC)CC2Cc3c(O)cccc3CC21 (stereo not drawn) [QUINAGOLIDE] | – | – | – | – | – | > 30 | –
6 | CN(C)C/C=C/C(=O)Nc1cc2c(Nc3ccc(F)c(Cl)c3)ncnc2cc1O[C@H]1CCOC1 [AFATINIB] | – | – | – | – | – | > 30 | –
7 | CC(O)(CS(=O)(=O)c1ccc(F)cc1)C(=O)Nc1ccc(C#N)c(C(F)(F)F)c1 (stereo not drawn) [BICALUTAMIDE] | > 30 | > 10 | > 30 | > 30 | > 10 | – | AC50 [4]: > 10 µM; AC50 [6]: > 10 µM
8 | CN[C@@H](C)[C@@H](O)c1ccccc1 [PSEUDOEPHEDRINE] | > 30 | > 10 | > 30 | > 30 | > 10 | – | AC50 [4]: > 10 µM; AC50 [6]: > 10 µM
9 | CCOC(=O)c1c(CSc2ccccc2)n(C)c2cc(Br)c(O)c(CN(C)C)c12 [UMIFENOVIR] | – | – | – | – | – | > 30 | –
10 | C[N+](C)(C)CCOP(=O)([O-])OC[C@H](O)CO | – | – | – | – | – | > 30 | –
11 | CN(C)CCCN1c2ccccc2CCc2ccccc21 [IMIPRAMINE] | > 30 | > 10 | > 30 | > 30 | 0.0697 | – | AC50 [4]: 0.239 µM; AC50 [6]: 5.56 µM
12 | CN(Cc1cnc2nc(N)nc(N)c2n1)c1ccc(C(=O)N[C@@H](CCC(=O)O)C(=O)O)cc1 [METHOTREXATE] | > 30 | > 10 | > 30 | > 30 | > 10 | – | AC50 [8]: > 30 µM
13 | CC(=O)O[C@]1(C(C)=O)CC[C@H]2[C@@H]3C=C(Cl)C4=CC(=O)[C@@H]5C[C@@H]5[C@]4(C)[C@H]3CC[C@@]21C [CYPROTERONE ACETATE] | > 30 | > 10 | – | – | > 10 | – | –
14 | CCOC(=O)C1=C(C)NC(C)=C(C(=O)OCC)C1c1ccccc1/C=C/C(=O)OC(C)(C)C [LACIDIPINE] | – | – | – | – | – | > 30 | –
15 | O=S1(=O)CCN(CN2CCS(=O)(=O)NC2)CN1 [TAUROLIDINE] | – | – | – | – | – | > 30 | –
16 | O=C(/C=C/c1cccc(S(=O)(=O)Nc2ccccc2)c1)NO [BELINOSTAT] | > 30 | > 10 | > 10 | > 10 | > 10 | – | AC50 [8]: > 30 µM; AC50 [4]: > 10 µM; AC50 [6]: > 10 µM
17 | CCC1(c2ccc(N)cc2)CCC(=O)NC1=O (stereo not drawn) [AMINOGLUTETHIMIDE] | – | – | – | – | – | > 30 | –
18 | CNCCc1ccc(OC(=O)C(C)C)c(OC(=O)C(C)C)c1 [IBOPAMINE] | – | – | – | – | – | > 30 | –
19 | O=C1OC(OC(=O)c2cccnc2Nc2cccc(C(F)(F)F)c2)c2ccccc21 (stereo not drawn) [TALNIFLUMATE] | – | – | – | – | – | > 30 | –
20 | C=C1c2cccc(O)c2C(=O)C2=C(O)[C@]3(O)C(=O)C(C(N)=O)=C(O)[C@@H](N(C)C)[C@@H]3[C@@H](O)[C@H]12 [METHACYCLINE] | – | – | – | – | – | – | AC50 [8]: > 30 µM
21 | CN(C)Cc1nnc2n1-c1ccc(Cl)cc1C(c1ccccc1)=NC2 [ADINAZOLAM] | – | – | – | – | – | – | AC50 [8]: > 10 µM
